Measurements from ChEMBL document CHEMBL6178015, “Discovery of a Novel Serine-Targeting Covalent Inhibitor against HCES2A for Treating Drug-induced Diarrhea and Ulcerative Colitis” (J Med Chem, 2025).
pIC50, pKi: −log10 of the molar value. Activity calls are given as the source filed them.

How the values were obtained:
[1] = Inhibition of human CES2A using fluorescein diacetate as substrate preincubated for 3 mins followed by substrate addition and measured after 30 mins by fluorescence microplate reader
[2] = Inhibition of human CES1A using NLMe as substrate preincubated for 3 mins followed by substrate addition and measured after 20 mins by chemiluminescence analysis
Homo sapiens [3] = species: Homo sapiens; test: Selectivity index, ratio of IC50 for inhibition of human CES1A to IC50 for inhibition of human CES2A
[4] = Irreversible inhibition of human CES2A using fluorescein diacetate as substrate preincubated for 33 mins followed by substrate addition by fluorescence microplate reader
Homo sapiens [5] = species: Homo sapiens; test: Irreversible inhibition of human CES2A at 0.02 nM preincubated for 33 mins and measured after 8 hrs dialysis by fluorescence microplate reader; conditions: time 513.0 min
[6] = Irreversible inhibition of human CES2A assessed as inhibition constant incubated for 5 to 30 mins
Homo sapiens [7] = species: Homo sapiens; test: Irreversible inhibition of human CES2A assessed as inactivation constant incubated for 5 to 30 mins; conditions: time 5-30 min
HepG2 = test: Inhibition of human CES2A in HepG2 cells assessed as decrease in green fluorescence at 5 to 60 nM incubated for 1 hrs by NCEN and Hoechst 33342 staining based assay; type: cell-based; conditions: dose 5-60 nM
[8] = Inhibition of human CES2A in HepG2 cells incubated for 1 hrs by NCEN and Hoechst 33342 staining based assay; type: cell-based
Mus musculus [9] = test: Reversal of irinotecan-induced gut toxicity in C57BL/6J mouse bearing MC38 cells assessed as reduction in diarrhea at 30 to 60 mg/kg,po administered daily and measured after 14 days; type: functional, organism-based; conditions: dose 30-60 mg/kg, time 14.0 day
Mus musculus [10] = test: Reversal of irinotecan-induced gut toxicity in C57BL/6J mouse bearing MC38 cells assessed as weight recovery at 30 to 60 mg/kg,po administered daily and measured after 14 days; type: functional, organism-based; conditions: dose 30-60 mg/kg, time 14.0 day
Mus musculus [11] = test: Reversal of irinotecan-induced gut toxicity in C57BL/6J mouse bearing MC38 cells assessed as reduction in colon shortening at 30 to 60 mg/kg,po administered daily and measured after 14 days; type: functional, organism-based; conditions: dose 30-60 mg/kg, time 14.0 day
Homo sapiens [12] = species: Homo sapiens; test: Potency index, ratio of LC-20W IC50 to test compound IC50 for inhibition of human CES2A using fluorescein diacetate as substrate
Mus musculus [13] = test: Reversal of irinotecan-induced gut toxicity in C57BL/6J mouse bearing MC38 cells assessed as amelioration of epithelial crypts loss at 30 to 60 mg/kg,po administered daily and measured after 14 days by H and E staining based analysis; type: functional, organism-based; conditions: dose 30-60 mg/kg, time 14.0 day
Mus musculus [14] = test: Reversal of irinotecan-induced gut toxicity in C57BL/6J mouse bearing MC38 cells assessed as amelioration of inflammatory cell infiltration loss at 30 to 60 mg/kg,po administered daily and measured after 14 days by H and E staining based analysis; type: functional, organism-based; conditions: dose 30-60 mg/kg, time 14.0 day
Mus musculus [15] = test: Reversal of irinotecan-induced gut toxicity in C57BL/6J mouse bearing MC38 cells assessed as amelioration of goblet cell apoptosis at 30 to 60 mg/kg,po administered daily and measured after 14 days by H and E staining based analysis; type: functional, organism-based; conditions: dose 30-60 mg/kg, time 14.0 day
Mus musculus [16] = test: Reversal of irinotecan-induced gut toxicity in C57BL/6J mouse bearing MC38 cells assessed as restoration of IL-6 levels in colon tissues at 30 to 60 mg/kg,po administered daily and measured after 14 days by ELISA; type: functional, organism-based; conditions: dose 30-60 mg/kg, time 14.0 day
Mus musculus [17] = test: Reversal of irinotecan-induced gut toxicity in C57BL/6J mouse bearing MC38 cells assessed as restoration of IL-1beta levels in colon tissues at 30 to 60 mg/kg,po administered daily and measured after 14 days by ELISA; type: functional, organism-based; conditions: dose 30-60 mg/kg, time 14.0 day
Mus musculus [18] = test: Reversal of irinotecan-induced gut toxicity in C57BL/6J mouse bearing MC38 cells assessed as restoration of TNF-alpha levels in colon tissues at 30 to 60 mg/kg,po administered daily and measured after 14 days by ELISA; type: functional, organism-based; conditions: dose 30-60 mg/kg, time 14.0 day
Mus musculus [19] = test: Reversal of irinotecan-induced gut toxicity in C57BL/6J mouse bearing MC38 cells assessed as increase in ZO-1 expression level in colon tissues at 30 to 60 mg/kg,po administered daily and measured after 14 days by immunohistochemical analysis; type: functional, organism-based; conditions: dose 30-60 mg/kg, time 14.0 day
Mus musculus [20] = test: Reversal of irinotecan-induced gut toxicity in C57BL/6J mouse bearing MC38 cells assessed as increase in claudin-1 expression level in colon tissues at 30 to 60 mg/kg,po administered daily and measured after 14 days by immunohistochemical analysis; type: functional, organism-based; conditions: dose 30-60 mg/kg, time 14.0 day
Mus musculus [21] = test: Reversal of irinotecan-induced gut toxicity in C57BL/6J mouse bearing MC38 cells assessed as change in tumor size at 30 to 60 mg/kg,po administered daily and measured after 14 days; type: functional, organism-based; conditions: dose 30-60 mg/kg, time 14.0 day
Mus musculus [22] = test: Reversal of irinotecan-induced gut toxicity in C57BL/6J mouse bearing MC38 cells assessed as effect on tumor volume at 30 to 60 mg/kg,po administered daily and measured after 14 days; type: functional, organism-based; conditions: dose 30-60 mg/kg, time 14.0 day
Mus musculus [23] = test: Reversal of irinotecan-induced gut toxicity in C57BL/6J mouse bearing MC38 cells assessed as effect on tumor weight at 30 to 60 mg/kg,po administered daily and measured after 14 days; type: functional, organism-based; conditions: dose 30-60 mg/kg, time 14.0 day
Mus musculus [24] = test: Antiinflammatory activity against DSS-induced ulcerative colitis mouse model assessed as alleviation in body weight loss at 30 to 60 mg/kg,IG administered once daily 7 days; type: functional, organism-based; conditions: dose 30-60 mg/kg, time 7.0 day
Mus musculus [25] = test: Antiinflammatory activity against DSS-induced ulcerative colitis mouse model assessed as inhibition of colon contracture at 30 to 60 mg/kg,IG administered once daily 7 days; type: functional, organism-based; conditions: dose 30-60 mg/kg, time 7.0 day
Mus musculus [26] = test: Antiinflammatory activity against DSS-induced ulcerative colitis mouse model assessed as decrease in DAI score at 30 to 60 mg/kg,IG administered once daily 7 days; type: functional, organism-based; conditions: dose 30-60 mg/kg, time 7.0 day
Mus musculus [27] = test: Antiinflammatory activity against DSS-induced ulcerative colitis mouse model assessed as preservation of colonic mucosal structure at 30 to 60 mg/kg,IG administered once daily 7 days by H and E staining based analysis; type: functional, organism-based; conditions: dose 30-60 mg/kg, time 7.0 day
Mus musculus [28] = test: Antiinflammatory activity against DSS-induced ulcerative colitis mouse model assessed as reduction in crypt destruction in colon tissues at 30 to 60 mg/kg,IG administered once daily 7 days by H and E staining based analysis; type: functional, organism-based; conditions: dose 30-60 mg/kg, time 7.0 day
Mus musculus [29] = test: Antiinflammatory activity against DSS-induced ulcerative colitis mouse model assessed as reduction in inflammatory infiltration in lamina propria at 30 to 60 mg/kg,IG administered once daily 7 days by H and E staining based analysis; type: functional, organism-based; conditions: dose 30-60 mg/kg, time 7.0 day
Mus musculus [30] = test: Antiinflammatory activity against DSS-induced ulcerative colitis mouse model assessed as restoration of IL-6 levels in colon tissues at 30 to 60 mg/kg,IG administered once daily 7 days by ELISA; type: functional, organism-based; conditions: dose 30-60 mg/kg, time 7.0 day
Mus musculus [31] = test: Antiinflammatory activity against DSS-induced ulcerative colitis mouse model assessed as restoration of IL-1beta levels in colon tissues at 30 to 60 mg/kg,IG administered once daily 7 days by ELISA; type: functional, organism-based; conditions: dose 30-60 mg/kg, time 7.0 day
Mus musculus [32] = test: Antiinflammatory activity against DSS-induced ulcerative colitis mouse model assessed as restoration of TNF-alpha levels in colon tissues at 30 to 60 mg/kg,IG administered once daily 7 days by ELISA; type: functional, organism-based; conditions: dose 30-60 mg/kg, time 7.0 day
Mus musculus [33] = test: Antiinflammatory activity against DSS-induced ulcerative colitis mouse model assessed as restoration of colon histology at 700 mg/kg,IG administered once daily 7 days by AB-PAS staining based analysis; type: functional, organism-based; conditions: time 7.0 day
Mus musculus [34] = test: Antiinflammatory activity against DSS-induced ulcerative colitis mouse model assessed as upregulation of ZO-1 expression in colon tissues at 700 mg/kg,IG administered once daily 7 days by immunohistochemical analysis; type: functional, organism-based; conditions: time 7.0 day
Mus musculus [35] = test: Antiinflammatory activity against DSS-induced ulcerative colitis mouse model assessed as upregulation of occludin expression in colon tissues at 700 mg/kg,IG administered once daily 7 days by immunohistochemical analysis; type: functional, organism-based; conditions: time 7.0 day
Mus musculus [36] = test: Antiinflammatory activity against DSS-induced ulcerative colitis mouse model assessed as upregulation of claudin-1 expression in colon tissues at 700 mg/kg,IG administered once daily 7 days by immunohistochemical analysis; type: functional, organism-based; conditions: time 7.0 day
hERG (KCNH2) = hERG (KCNH2) (Homo sapiens, UniProt Q12809); test: Inhibition of hERG expressed in HEK293 cells at 10 uM relative to control; type: toxicity, cell-based; conditions: HEK293 cells that express hERG
[37] = target: Voltage-gated inwardly rectifying potassium channel KCNH2 (Homo sapiens, UniProt Q12809); test: Inhibition of hERG expressed in HEK293 cells; type: toxicity, cell-based
[38] = Irreversible inhibition of human CES2A using fluorescein diacetate as substrate preincubated for 3 mins followed by substrate addition by fluorescence microplate reader

hERG (KCNH2), sequence (Q12809 whole entry): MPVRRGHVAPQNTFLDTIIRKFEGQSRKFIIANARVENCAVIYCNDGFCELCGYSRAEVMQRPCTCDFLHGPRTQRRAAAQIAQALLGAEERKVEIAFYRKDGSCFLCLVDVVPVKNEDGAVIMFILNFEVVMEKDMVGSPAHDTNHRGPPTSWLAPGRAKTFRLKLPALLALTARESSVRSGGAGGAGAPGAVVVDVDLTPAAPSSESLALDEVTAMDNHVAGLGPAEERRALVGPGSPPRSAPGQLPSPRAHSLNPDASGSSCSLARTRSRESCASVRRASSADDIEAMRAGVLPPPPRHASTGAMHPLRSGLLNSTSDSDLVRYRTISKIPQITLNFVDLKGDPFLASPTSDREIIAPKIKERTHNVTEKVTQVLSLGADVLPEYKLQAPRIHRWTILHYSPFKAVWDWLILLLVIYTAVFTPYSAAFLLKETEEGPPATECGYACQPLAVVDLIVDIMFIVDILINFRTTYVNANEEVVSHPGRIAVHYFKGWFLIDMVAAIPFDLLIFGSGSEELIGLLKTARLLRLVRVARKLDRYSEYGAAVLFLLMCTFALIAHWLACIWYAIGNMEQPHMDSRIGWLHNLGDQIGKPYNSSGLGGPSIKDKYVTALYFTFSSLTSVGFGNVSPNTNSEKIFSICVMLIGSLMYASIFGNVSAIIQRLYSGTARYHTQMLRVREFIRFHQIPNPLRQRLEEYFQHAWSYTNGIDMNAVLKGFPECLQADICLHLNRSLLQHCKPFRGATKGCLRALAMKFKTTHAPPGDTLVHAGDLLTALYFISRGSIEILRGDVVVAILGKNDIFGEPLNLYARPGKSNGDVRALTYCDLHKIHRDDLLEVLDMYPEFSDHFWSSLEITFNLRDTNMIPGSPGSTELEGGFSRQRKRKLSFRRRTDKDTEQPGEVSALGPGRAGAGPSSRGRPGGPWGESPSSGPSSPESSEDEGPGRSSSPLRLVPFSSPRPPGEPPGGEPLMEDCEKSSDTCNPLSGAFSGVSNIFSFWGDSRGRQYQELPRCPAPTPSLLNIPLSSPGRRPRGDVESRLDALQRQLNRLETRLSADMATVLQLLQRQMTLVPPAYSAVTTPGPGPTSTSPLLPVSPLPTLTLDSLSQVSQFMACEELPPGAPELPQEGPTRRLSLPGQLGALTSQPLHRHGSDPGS
Voltage-gated inwardly rectifying potassium channel KCNH2, sequence (Q12809 whole entry): as above

CCCCCCCCC(=O)c1cccc2oc(-c3cc(OC)ccc3OC(=O)N3CCCC3)cc12
0.052 min⁻¹: Kinact (Homo sapiens [7])
inactive: Activity (Mus musculus [21]) | Activity (Mus musculus [23])
< 5.00: pIC50 [37]
13: Ratio IC50 (Homo sapiens [12])
9.92: pIC50 [38]
14.6%: inhibition at 10 µM (hERG (KCNH2))
59: Ratio IC50 (Homo sapiens [3])
9.37: pKi [6]
9.93: pIC50 [1]
7.71: pIC50 [8]
8.16: pIC50 [2]
10.55: pIC50 [4]
active: inhibition (Homo sapiens [5]) | inhibition (HepG2) | Activity (Mus musculus [9]) | Activity (Mus musculus [10]) | Activity (Mus musculus [11]) | Activity (Mus musculus [13]) | Activity (Mus musculus [14]) | Activity (Mus musculus [15]) | Activity (Mus musculus [16]) | Activity (Mus musculus [17]) | Activity (Mus musculus [18]) | Activity (Mus musculus [19]) | Activity (Mus musculus [20]) | Activity (Mus musculus [22]) | Activity (Mus musculus [24]) | Activity (Mus musculus [25]) | Activity (Mus musculus [26]) | Activity (Mus musculus [27]) | Activity (Mus musculus [28]) | Activity (Mus musculus [29]) | Activity (Mus musculus [30]) | Activity (Mus musculus [31]) | Activity (Mus musculus [32]) | Activity (Mus musculus [33]) | Activity (Mus musculus [34]) | Activity (Mus musculus [35]) | Activity (Mus musculus [36])
